# Test results reported in patent US20250282798A1, “HETEROARYL-SUBSTITUTED BICYCLIC COMPOUND AND USE THEREOF” (Medshine Discovery Inc., priority 2022, published 2025).
# Tests used:
# [1] = target: T1, human HPK1 (Homo sapiens (Human), UniProt Q92918); test: 33P isotope-labeled kinase activity assay (Method 1); format: biochemical; conditions: HPK1 enzyme concentration 8.1 nM; ATP concentration 15 μM
# Description: Method 1: The IC50 value was assayed by ^33P isotope-labeled kinase activity assay to evaluate the inhibitory ability of a test compound on human HPK1.
# (§1) Enzyme buffer conditions: 50 mM Hepes (pH 7.5), 10 mM MgCl2, 1 mM EGTA, 0.01% Brij35, 2 mM DTT.
# (§2) Assay steps: A compound was diluted 3-fold with DMSO in a dilution plate, with a final initial concentration of […] and 10 concentration gradient points. The compound was diluted 50-fold into the kinase reaction buffer, and the mixture was shaken on a shaker for 20 minutes. The kinase was prepared with the enzyme reaction buffer. 2 μL of kinase was added to each well of a reaction plate. 1 μL of the diluted compound in the buffer was added to each well. The plate was sealed with a sealing film, centrifuged at 1000 g for 30 seconds, and placed at room temperature for 10 minutes. The mixed solution of ATP/MBP was prepared with the enzyme reaction buffer. 2 μL of the mixed solution of ATP/MBP was added to the reaction plate. The plate was sealed with a sealing film, and centrifuged at 1000 g for 30 seconds. The mixture in the plate was reacted at room temperature for 60 minutes. […] The plate was incubated at 25° C. for 40 min. […] The plate was incubated at 25° C. for 40 min. The RLU (relative luminescence unit) signal was read with a BMG microplate reader, and the signal intensity was used to characterize the activity of the kinase.
# [2] = target: T1, human HPK1; test: Kinase activity assay using ADP-Glo method (Method 2); format: biochemical; conditions: HPK1 enzyme concentration 0.1 nM; ATP concentration 10 μM
# Description: Method 2: The IC50 value was assayed by the kinase activity assay using ADP-Glo method to evaluate the inhibitory ability of a test compound on human HPK1.
# Enzyme buffer conditions: 50 mM Hepes (pH 7.5), 10 mM MgCl2, 1 mM EGTA, 0.01% Brij35, 2 mM DTT. […]
# as §2, with “4-fold” for “3-fold”
# (§3) The kinase activity data were expressed as the comparison of the kinase activity of a group with a test compound and the kinase activity of the blank group (containing only DMSO). The IC50 value was obtained by curve fitting using Prism software (GraphPad7.0).
# [3] = In vitro metabolic stability in human liver microsomes; format: in vitro ADME; conditions: 1 μM compound, 0.5 mg/mL protein
# Description: The in vitro metabolic stability of the compounds of the present disclosure in human was investigated by the metabolic stability in human liver microsomes.
# Assay conditions: 1 μM of a compound was incubated with human liver microsomes supplemented with NADPH regeneration system at 37° C. for a certain period of time up to 60 minutes. The concentration of the compound in the resulting sample was assayed by LC-MS/MS method.
# Assay procedure: 96-well incubation plates were named T0, T5, T15, T30, T45, T60, Blank60 and NCF60, respectively. The reaction time corresponding to the incubation plates were 0, 5, 15, 30, 45 and 60 minutes, respectively. No test sample or control compound was added to the Blank60 plate, and samples were taken after 60 minutes of incubation. Potassium phosphate buffer was used instead of NADPH regeneration system solution in the NCF60 plate, and the plate was incubated for 60 minutes. All the samples of the time points were from a single well.
# 5 μL of a test sample or control sample working solution and 100 μL of microsome working solution (the concentration of liver microsome protein was 0.5 mg/mL) were added to the T0, T5, T15, T30, T45, T60 and NCF60 plates, respectively. Only microsome working solution was added to the Blank60 plate. Then, the Blank60, T5, T15, T30, T45 and T60 plates, except TO and NCF60 plates, were placed in a 37° C. water bath, and preincubated for about 10 minutes.
# 180 μL of stop solution (the stop solution was a solution of tolbutamide (100 ng/mL) in acetonitrile and methanol (95:5, V/V)) was firstly added to the sample of TO plate, and then the NADPH regeneration system working solution was added.
# 50 μL of potassium phosphate buffer was added to each well of the NCF60 plate, and the plate was incubated for 60 minutes.
# After the pre-incubation of Blank60, T5, T15, T30, T45 and T60 plates, 44 μL of NADPH regeneration system working solution was added to each sample well to initiate the reaction. Therefore, for the sample wells containing a test sample or control sample working solution, the final concentration of the reaction was […], the concentration of liver microsomes was 0.5 mg/mL, and the final concentrations of DMSO and acetonitrile in the reaction system were 0.01% (v/v) and 0.99% (v/v), respectively.
# After being incubated for an appropriate time (e.g., 5, 15, 30, 45, and 60 min), 180 μL of stop solution was added to each well of the test sample and control sample of Blank60, T5, T15, T30, T45, T60, and NCF60 plates, respectively, to terminate the reaction.
# All sample plates were shaken and centrifuged for 10 min. 80 μL of the supernatant of a test sample was taken and diluted into 240 μL of a mixture of acetonitrile and water (1:9, V/V) containing 0.1% formic acid for LC-MS/MS analysis.
# By calculating the corresponding time point and the remaining percentage of a compound, the half-life T1/2 and clearance rate CLint(liver) of the compound in human liver microsome metabolism were obtained.
# [4] = target: human GLK (Homo sapiens (Human), UniProt Q8IVH8); test: Kinase activity assay using ADP-Glo method, GLK; format: biochemical; conditions: GLK enzyme concentration 8 nM; ATP 20 μM
# Chain of human GLK (Q8IVH8 whole entry): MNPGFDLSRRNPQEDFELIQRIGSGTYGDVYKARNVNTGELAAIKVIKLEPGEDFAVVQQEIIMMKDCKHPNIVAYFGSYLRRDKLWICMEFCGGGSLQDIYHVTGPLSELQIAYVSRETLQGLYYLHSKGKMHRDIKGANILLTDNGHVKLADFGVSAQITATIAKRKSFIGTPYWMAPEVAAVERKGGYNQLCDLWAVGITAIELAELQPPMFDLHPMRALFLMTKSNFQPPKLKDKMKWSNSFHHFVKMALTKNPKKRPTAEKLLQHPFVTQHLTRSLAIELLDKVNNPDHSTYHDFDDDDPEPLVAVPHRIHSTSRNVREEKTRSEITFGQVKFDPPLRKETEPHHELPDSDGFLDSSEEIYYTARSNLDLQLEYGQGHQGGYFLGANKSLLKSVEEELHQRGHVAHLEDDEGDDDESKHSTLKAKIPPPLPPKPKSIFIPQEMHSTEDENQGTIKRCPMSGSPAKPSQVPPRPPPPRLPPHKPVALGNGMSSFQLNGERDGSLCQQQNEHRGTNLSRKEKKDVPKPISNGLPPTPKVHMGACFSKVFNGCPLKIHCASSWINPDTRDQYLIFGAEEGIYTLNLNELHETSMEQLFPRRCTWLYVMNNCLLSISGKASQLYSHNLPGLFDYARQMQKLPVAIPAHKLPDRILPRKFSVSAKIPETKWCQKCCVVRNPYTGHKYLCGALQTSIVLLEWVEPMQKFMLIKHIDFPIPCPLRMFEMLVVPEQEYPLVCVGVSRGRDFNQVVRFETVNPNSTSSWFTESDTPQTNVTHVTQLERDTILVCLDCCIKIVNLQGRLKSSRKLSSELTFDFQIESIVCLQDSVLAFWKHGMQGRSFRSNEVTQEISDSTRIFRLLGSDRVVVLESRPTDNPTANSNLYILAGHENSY
# Description: The IC50 value was assayed by the kinase activity assay using ADP-Glo method to evaluate the inhibitory ability of a test compound on human GLK.
# as §1
# Preparation of the mixture of kinase and substrate: the concentration of GLK in the reaction solution was 8 nM, the concentration of ATP was […], and the concentration of MBP was 0.05 mg/mL.
# Assay steps: A compound was diluted 4-fold with DMSO in a dilution plate, with a final initial concentration of […] and 10 concentration gradient points. The compound was diluted 50-fold into the kinase reaction buffer, and the mixture was shaken on a shaker for 20 minutes. The kinase was prepared with the enzyme reaction buffer. 2 μL of kinase was added to each well of a reaction plate. 1 μL of the diluted compound in the buffer was added to each well. The plate was sealed with a sealing film, centrifuged at 1000 g for 30 seconds, and placed at room temperature for 10 minutes. The mixed solution of ATP/MBP was prepared with the enzyme reaction buffer. 2 μL of the mixed solution of ATP/MBP was added to the reaction plate. The plate was sealed with a sealing film, and centrifuged at 1000 g for 30 seconds. The mixture in the plate was reacted at room temperature for 60 minutes. 4 μL of ADP-Glo was transferred to the 384 reaction plate, and centrifuged at 1000 rpm/min for 1 min. The plate was incubated at 25° C. for 40 min. 8 μL of detection solution was transferred to the 384 reaction plate, and centrifuged at 1000 rpm/min for 1 min. The plate was incubated at 25° C. for 40 min. The RLU (relative luminescence unit) signal was read with a BMG microplate reader, and the signal intensity was used to characterize the activity of the kinase.
# as §3
# [5] = Pharmacokinetic evaluation in mice; format: in vivo, female Balb/c mice
# Description: Assay procedure: 10% DMSO+20% PEG400+70% (30% SBE-P3-CD aqueous solution) (the trifluoroacetate of compound 4, the trifluoroacetate of compound 9) or 10% SBE-β-CD aqueous solution (the trifluoroacetate of compound 24-3) was injected into female Balb/c mice (overnight fasting, 7-9 weeks old) via the tail vein. Female Balb/c mice (overnight fasting, 7-9 weeks old) were gavaged with 10% DMSO+20% PEG400+70% (30% SBE-β-CD aqueous solution (the trifluoroacetate of compound 4, the trifluoroacetate of compound 9) or 10% SBE-P3-CD aqueous solution (the trifluoroacetate of compound 24-3) at dosages shown in Table 7. About 30 μL of blood of the two groups of animals was collected from the jugular vein at 0.0833, 0.25, 0.5, 1.0, 2.0, 4.0, 8.0, and 24 hours after the administration, and from the tail vein at 0.25, 0.5, 1.0, 2.0, 4.0, 8.0, and 24 hours after the administration, respectively, and placed in an anticoagulant tube with EDTA-K2 added. The tube was centrifuged to separate the plasma. The plasma concentration was assayed by LC-MS/MS. The relevant pharmacokinetic parameters were calculated with WinNonlin™ Version 6.3 (Pharsight, Mountain View, CA) pharmacokinetic software using the non-compartmental linear logarithmic trapezoidal method.
# [6] = system: MDR1 (P-glycoprotein); test: Permeability evaluation in MDR1-MDCK II cells; format: in vitro ADME; conditions: dog
# Description: Cell line: The MDR1-MDCK II cell line authorized by Piet Borst's laboratory at the Netherlands Cancer Research Institute was used in this assay as an in vitro model for the permeability evaluation assay. The cells were inoculated in a Transwell-96 well cell plate at a density of 2.3×10^5 cells/cm^2, and cultured in a carbon dioxide incubator for 4-7 days before use in the transport assay.
# The administration concentration of the test sample was 2.00 μM.
# Test direction and number of parallel samples: bidirectional A-B and B-A, 2 parallels
# Transport buffer (TB): HBSS solution containing 10 mM HEPES (pH 7.40±0.05)
# Incubation conditions: 37±1° C., 5% CO2, incubated for 150 minutes
# Control compounds: Nadolol and metoprolol were used as low-permeability and high-permeability control compounds. Digoxin was used as a substrate of P-glycoprotein. The administration concentration of nadolol and metoprolol was 2.00 μM, and the administration concentration of digoxin was 10.0 μM.
# After the transport assay, the integrity of the MDR1-MDCK II cell layer was assayed by the Lucifer Yellow Rejection Assay. The remaining solution in the apical and basolateral wells was removed. 75 μL of TB containing 100 μM Lucifer Yellow was added to the apical well, and 250 μL of TB was added to the basolateral well. The cell plate was incubated in a cell culture incubator at 37±1° C., 5% CO2 and saturated humidity for 30 minutes. Then, 20 μL of sample was taken from the apical well and mixed with 60 μL of TB, and 80 μL of sample was taken from the basolateral well. The relative fluorescence unit (RFU) was measured at 425/528 nm (excitation/emission) using a microplate reader.
# In this assay, the sample analysis of the test samples and control compounds of nadolol, metoprolol, and digoxin was performed by liquid chromatography-tandem mass spectrometry (LC-MS/MS). The retention time of the analytes and internal standards, chromatogram acquisition, and chromatogram integration were processed using the software Analyst (Sciex, Framingham, MA, USA). The sample analysis was semi-quantitatively determined using the peak area of analyte and the peak area of internal standard.
# VR is the volume of the receiver end solution (0.075 mL for side A, and 0.25 mL for side B); Area is the relative surface area of the cell monolayer (0.0804 cm2); Time is the incubation time (9000 s); C0 is the peak area ratio of the compound at the administration end; VD is the volume of the administration end (0.075 mL for side A, and 0.25 mL for side B); CD and CR are the peak area ratios of the compound at the administration end and the receiver end, respectively.
# [7] = female, Balb/c, mouse, plasma, IV 2 mg/kg
# [8] = female, Balb/c, mouse, plasma, PO 75 mg/kg
# T1 sequence (Q92918 whole entry): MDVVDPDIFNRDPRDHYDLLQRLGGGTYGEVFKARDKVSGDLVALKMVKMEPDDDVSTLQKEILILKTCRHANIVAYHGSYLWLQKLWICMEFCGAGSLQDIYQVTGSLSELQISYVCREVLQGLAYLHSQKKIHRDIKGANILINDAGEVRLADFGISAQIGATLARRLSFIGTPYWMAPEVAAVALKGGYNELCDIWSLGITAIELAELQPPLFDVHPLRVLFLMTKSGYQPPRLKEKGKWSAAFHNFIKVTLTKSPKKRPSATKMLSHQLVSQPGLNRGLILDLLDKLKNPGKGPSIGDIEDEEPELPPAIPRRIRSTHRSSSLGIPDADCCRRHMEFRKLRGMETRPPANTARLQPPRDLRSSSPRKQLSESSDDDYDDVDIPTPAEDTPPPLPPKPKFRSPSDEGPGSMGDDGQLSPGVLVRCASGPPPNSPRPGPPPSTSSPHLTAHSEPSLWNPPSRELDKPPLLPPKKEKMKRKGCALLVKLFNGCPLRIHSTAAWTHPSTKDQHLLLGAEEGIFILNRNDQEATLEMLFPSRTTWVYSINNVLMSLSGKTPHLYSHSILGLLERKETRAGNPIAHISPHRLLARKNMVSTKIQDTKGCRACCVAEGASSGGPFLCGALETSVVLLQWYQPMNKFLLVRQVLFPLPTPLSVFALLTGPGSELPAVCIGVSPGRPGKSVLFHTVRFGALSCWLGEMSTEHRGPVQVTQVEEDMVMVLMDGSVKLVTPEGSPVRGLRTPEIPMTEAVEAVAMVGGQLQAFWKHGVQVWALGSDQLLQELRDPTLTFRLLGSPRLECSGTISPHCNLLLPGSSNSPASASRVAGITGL
structure (smiles),measurement,setting,value
CN(C)Cc1cc(Nc2ncc(-c3cnc4cc(F)ccn34)c3c2C(=O)NC3)ccc1N1CCOCC1 [Compound 2],IC50,[1],18 nM
O=C1NCc2c(-c3cnc4cc(F)ccn34)ccc(Nc3ccc4c(n3)OC[C@H]3COCCN43)c21 [Compound 9],IC50,[2],0.7 nM
same,CLint scaled at 1 μM,[3],39 mL/min/kg
same,half-life at 1 μM,[3],32 min
same,IC50,[4],115 nM
O=C1NCc2c(-c3cnc4cc(F)ccn34)ccc(Nc3ccc4c(n3)OC[C@H]3COCCN43)c21 [Trifluoroacetate of compound 9],Tlast,[5]; IV 2 mg/kg,2 h
same,Tlast,[5]; PO 75 mg/kg,8 h
same,AUC(0-inf),[5]; [7],1.95 µM·h
same,AUC(0-t),[5]; [7],1.93 µM·h
same,C0,[5]; [7],6.06 µM
same,clearance,[5]; [7],36 mL/min/kg
same,half-life,[5]; [7],18 min
same,Vd,"[5]; female, Balb/c, mouse, plasma, IV 2 mg/kg, read-out: Vdss",0.8 L/kg
same,AUC(0-inf),[5]; [8],108 µM·h
same,AUC(0-t),[5]; [8],108 µM·h
same,Cmax,[5]; [8],39.8 µM
same,Tmax,[5]; [8],48 min
same,half-life,[5]; [8],48 min
same,bioavailability,"[5]; female, Balb/c, mouse, plasma, PO 75 mg/kg vs IV 2 mg/kg, calculated using AUC0-last",148%
CN1Cc2nc(Nc3ccc(-c4cnc5cc(F)ccn45)c4c3C(=O)NC4)ccc2N2CCOCC2C1 (stereo not drawn) [Trifluoroacetate of compound 16],IC50,[4],277 nM
Cn1ccc2c(-c3ncc(Nc4ccc5c(n4)OC[C@H]4COCCN54)c4c3CNC4=O)ccnc21 [Trifluoroacetate of compound 20],"Papp A→B at 150 min, 2 μM","[6]; pH 7.4, 2.00 μM, 150 minutes",4.61 ×10⁻⁶ cm/s
same,"Papp B→A at 150 min, 2 μM","[6]; pH 7.4, 2.00 μM, 150 minutes",22.5 ×10⁻⁶ cm/s
same,"efflux ratio at 150 min, 2 μM","[6]; pH 7.4, 2.00 μM, 150 minutes",4.88
same,"Papp at 150 min, 2 μM","[6]; pH 7.4, class by Papp, read-out: Conclusion of the permeability",1 to 5.5 ×10⁻⁶ cm/s
same,CLint scaled at 1 μM,[3],63 mL/min/kg
same,half-life at 1 μM,[3],20 min
same,IC50,[4],198 nM
